pEC50: −log10 of the molar value.
How the values were obtained:
[1] = biological target: Beta-1 adrenergic receptor (Homo sapiens, UniProt P08588); experiment: Agonist activity at human recombinant beta-1 adrenergic receptor expressed in CHO cells assessed as cAMP accumulation by enzyme immuno assay; type: functional, cell-based
[2] = biological target: Beta-3 adrenergic receptor (Homo sapiens, UniProt P13945); experiment: Agonist activity at human recombinant beta3 adrenergic receptor expressed in CHO cells assessed as cAMP accumulation by enzyme immuno assay; type: functional, cell-based
Sequence of Beta-3 adrenergic receptor (Homo sapiens, UniProt P13945) (P13945 whole entry): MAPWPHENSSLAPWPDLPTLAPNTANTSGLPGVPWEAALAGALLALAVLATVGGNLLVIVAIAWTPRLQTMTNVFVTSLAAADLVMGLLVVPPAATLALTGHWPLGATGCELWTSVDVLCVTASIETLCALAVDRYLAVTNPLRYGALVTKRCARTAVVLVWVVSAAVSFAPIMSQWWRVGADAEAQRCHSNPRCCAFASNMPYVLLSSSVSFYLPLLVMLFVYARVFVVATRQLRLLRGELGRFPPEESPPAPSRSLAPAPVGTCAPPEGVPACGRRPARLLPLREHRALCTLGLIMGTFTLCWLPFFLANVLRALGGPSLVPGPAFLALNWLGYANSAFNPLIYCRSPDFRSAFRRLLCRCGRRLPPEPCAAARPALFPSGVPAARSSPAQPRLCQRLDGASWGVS

[3] = biological target: Beta-2 adrenergic receptor (Homo sapiens, UniProt P07550); experiment: Agonist activity at human recombinant beta2 adrenergic receptor expressed in CHO cells assessed as cAMP accumulation by enzyme immuno assay; type: functional, cell-based
Sequence of Beta-2 adrenergic receptor (P07550 whole entry): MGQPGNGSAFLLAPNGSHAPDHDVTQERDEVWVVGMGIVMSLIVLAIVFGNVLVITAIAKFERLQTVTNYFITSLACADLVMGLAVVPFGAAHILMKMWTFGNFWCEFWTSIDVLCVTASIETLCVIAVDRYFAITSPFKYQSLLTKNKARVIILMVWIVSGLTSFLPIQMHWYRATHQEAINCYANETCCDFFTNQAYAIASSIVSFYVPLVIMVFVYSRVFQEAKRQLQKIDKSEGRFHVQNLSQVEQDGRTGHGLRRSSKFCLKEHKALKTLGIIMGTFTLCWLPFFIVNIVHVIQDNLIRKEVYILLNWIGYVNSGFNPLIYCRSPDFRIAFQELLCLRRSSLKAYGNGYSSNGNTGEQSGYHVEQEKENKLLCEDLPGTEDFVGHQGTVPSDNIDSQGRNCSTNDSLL

[4] = Bioavailability in monkey at 0.30 mg/kg, po by cassette assay; type: ADME, organism-based, Macaca mulatta; conditions: rhesus monkey, in vivo, 0.3 mg/kg
[5] = AUC (0 to 24 hrs) in dog at 0.1 mg/kg, po; type: ADME, organism-based, Canis lupus familiaris; set-up: time < 24 hr, dose 0.1 mg/kg, route oral; conditions: plasma
Canis familiaris = species: Canis familiaris; experiment: cells; conditions: Canis lupus familiaris, 3 h
Description: Inhibition of carbachol-induced increase in intravesical pressure in intraduodenally dosed Beagle dog OAB model for 180 mins

[6] = biological target: Beta-3 adrenergic receptor (Canis lupus familiaris, UniProt O02662); experiment: Agonist activity at dog recombinant beta3 adrenergic receptor expressed in CHO cells assessed as cAMP accumulation by enzyme immuno assay; type: functional, cell-based
Sequence of Beta-3 adrenergic receptor (Canis lupus familiaris, UniProt O02662) (O02662 whole entry): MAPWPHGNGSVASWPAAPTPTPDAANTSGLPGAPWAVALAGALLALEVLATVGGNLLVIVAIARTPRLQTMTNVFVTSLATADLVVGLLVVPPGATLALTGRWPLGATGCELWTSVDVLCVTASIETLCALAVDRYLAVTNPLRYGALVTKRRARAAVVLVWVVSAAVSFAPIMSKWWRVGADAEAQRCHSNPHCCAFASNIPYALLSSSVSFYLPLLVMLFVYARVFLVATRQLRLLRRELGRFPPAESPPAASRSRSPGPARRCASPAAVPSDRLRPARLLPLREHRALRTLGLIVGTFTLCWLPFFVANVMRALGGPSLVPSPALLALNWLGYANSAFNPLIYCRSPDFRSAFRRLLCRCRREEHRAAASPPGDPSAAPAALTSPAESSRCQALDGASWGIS

[7] = Protein binding in Beagle dog serum; type: ADME, cell-free, Canis lupus familiaris; conditions: read-out: PPB (converted)
[8] = Total clearance in dog at 0.1 mg/kg, iv; type: ADME, organism-based, Canis lupus familiaris; set-up: dose 0.1 mg/kg, route intravenous; conditions: in vivo
[9] = AUC (0 to 24 hrs) in monkey at 0.30 mg/kg, po by cassette assay; type: ADME, organism-based, Macaca mulatta; set-up: time < 24 hr, dose 0.3 mg/kg, route oral; conditions: rhesus monkey, plasma, 0.3 mg/kg
[10] = Cmax in monkey at 0.30 mg/kg, po by cassette assay; type: ADME, organism-based, Macaca mulatta; set-up: dose 0.3 mg/kg, route oral; conditions: rhesus monkey, in vivo, 0.3 mg/kg
[11] = Bioavailability in dog at 0.1 mg/kg, po; type: ADME, organism-based, Canis lupus familiaris; conditions: in vivo
[12] = Total clearance in monkey at 0.30 mg/kg, iv by cassette assay; type: ADME, organism-based, Macaca mulatta; set-up: dose 0.3 mg/kg, route intravenous; conditions: rhesus monkey, in vivo, 0.3 mg/kg
[13] = Cmax in dog at 0.1 mg/kg, po; type: ADME, organism-based, Canis lupus familiaris; set-up: dose 0.1 mg/kg, route oral; conditions: in vivo
[14] = Metabolic stability assessed as intrinsic clearance in dog liver microsome in presence of NADPH-generating system; type: ADME, Canis lupus familiaris; conditions: liver microsomes
[15] = Bioavailability in Beagle dog at 0.1 mg/kg, po by cassette assay; type: ADME, organism-based, Canis lupus familiaris; conditions: in vivo
[16] = Total clearance in Beagle dog at 0.1 mg/kg, iv by cassette assay; type: ADME, organism-based, Canis lupus familiaris; set-up: dose 0.1 mg/kg, route intravenous; conditions: in vivo
[17] = Volume of distribution at steady state in Beagle dog at 0.1 mg/kg, iv by cassette assay; type: ADME, organism-based, Canis lupus familiaris; set-up: dose 0.1 mg/kg, route intravenous; conditions: in vivo, read-out: Vdss
[18] = AUC (0 to 24 hrs) in Beagle dog at 0.1 mg/kg, iv by cassette assay; type: ADME, organism-based, Canis lupus familiaris; set-up: time < 24 hr, dose 0.1 mg/kg, route intravenous; conditions: plasma
[19] = Terminal half life in Beagle dog at 0.1 mg/kg, iv by cassette assay; type: ADME, organism-based, Canis lupus familiaris; set-up: dose 0.1 mg/kg, route intravenous; conditions: in vivo, read-out: beta t1/2 (converted)
[20] = Terminal half life in rat plasma at 1.0 mg/kg, iv; type: ADME, organism-based; set-up: dose 1 mg/kg, route intravenous; conditions: read-out: beta t1/2 (converted)
[21] = Bioavailability in rat at 1.0 mg/kg, po; type: ADME, organism-based; conditions: in vivo
[22] = Total clearance in rat at 1.0 mg/kg, iv; type: ADME, organism-based; set-up: dose 1 mg/kg, route intravenous; conditions: in vivo
[23] = Cmax in rat at 1.0 mg/kg, po; type: ADME, organism-based; set-up: dose 1 mg/kg, route oral; conditions: in vivo
[24] = Terminal half life in dog at 0.1 mg/kg, iv; type: ADME, organism-based, Canis lupus familiaris; set-up: dose 0.1 mg/kg, route intravenous; conditions: in vivo, read-out: beta t1/2 (converted)
[25] = AUC (0 to 24 hrs) in rat at 1.0 mg/kg, po; type: ADME, organism-based; set-up: time < 24 hr, dose 1 mg/kg, route oral; conditions: plasma

Sequence of Beta-1 adrenergic receptor (P08588 whole entry): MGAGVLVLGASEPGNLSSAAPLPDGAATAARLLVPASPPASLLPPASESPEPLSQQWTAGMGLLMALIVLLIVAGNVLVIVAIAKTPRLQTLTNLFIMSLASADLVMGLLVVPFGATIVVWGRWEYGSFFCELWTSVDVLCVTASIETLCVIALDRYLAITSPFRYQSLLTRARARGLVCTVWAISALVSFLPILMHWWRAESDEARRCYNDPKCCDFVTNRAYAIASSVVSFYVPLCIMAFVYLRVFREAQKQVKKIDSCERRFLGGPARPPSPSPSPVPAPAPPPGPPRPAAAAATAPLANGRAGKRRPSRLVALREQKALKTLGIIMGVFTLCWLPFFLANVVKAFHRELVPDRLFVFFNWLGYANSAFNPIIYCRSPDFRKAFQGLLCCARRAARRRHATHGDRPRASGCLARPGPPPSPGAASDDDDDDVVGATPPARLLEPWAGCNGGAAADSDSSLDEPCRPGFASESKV

Structure (SMILES) | pEC50 [1] | pEC50 [2] | pEC50 [3] | AUC(0-t) at 24 h [5] [ng·h/mL] | fraction unbound [7] | clearance [8] [mL/min/kg] | bioavailability [11] [%] | Cmax [13] [ng/mL] | further results
C[C@H](Cc1ccc(-c2ccc(C(=O)O)cc2)cc1)NC[C@H](O)c1ccccc1 | 7.66 | 9.52 | < 6.00 |  |  |  |  |  | 
CCCOc1cc(-c2ccc(C[C@@H](C)NC[C@H](O)c3cccnc3)cc2)ccc1C(=O)O | 6.72 | 10.19 | < 6.00 | 35.5 | 0.18 | 24.3 | 54.9 | 3 | bioavailability [4]: 57.2%; pEC50 (Canis familiaris): 9.55; ED50 (Canis familiaris): 4.8 µg/kg; pEC50 [6]: 9.29; AUC(0-t) at 24 h [9]: 65.2 ng·h/mL; Cmax [10]: 8.2 ng/mL; clearance [12]: 47 mL/min/kg
C[C@H](Cc1ccc(-c2ccc(C(=O)O)c(OC3CCCCC3)c2)cc1)NC[C@H](O)c1ccccc1 | 7.55 | 10.38 |  |  |  |  |  |  | CLint scaled [14]: < 0.1 mL/min/kg; bioavailability [15]: 0%; clearance [16]: 68.9 mL/min/kg; Vd [17]: 1.13 L/kg; AUC(0-t) at 24 h [18]: 24.3 ng·h/mL; half-life [19]: 0.35 h
C[C@H](Cc1ccc(-c2ccc(C(=O)O)cc2)cc1)NC[C@H](O)c1cccnc1 | 7.12 | 9.31 | < 6.00 | 207 |  | 4.4 | 59.7 | 30.5 | half-life [20]: 1.91 h; bioavailability [21]: 25.2%; clearance [22]: 34.3 mL/min/kg; Cmax [23]: 22 ng/mL; half-life [24]: 6.4 h; AUC(0-t) at 24 h [25]: 103 ng·h/mL
CCOC(=O)COc1ccc2c(c1)C[C@@H](NC[C@H](O)c1cccc(Cl)c1)CCC2 |  |  |  |  | 0.06 |  |  |  | 
